Series [1] concerns U87 cells. The series is described as follows: Matrigel invasion analysis. It is filed as cell-based, human. The following applies: U87, 6.25 and 12.5 μM, 24 h, vs negative control. The procedure: The analysis was completed with U87 and HeLa cell lines to assess the metastatic potential of tumor cells using transwell inserts with an 8 μm pore size polycarbonate membrane (Corning Costar, Cambridge, MA, USA) coated with 1/5 of Matrigel (Beckton Dickinson, Bedford, MA, USA) and air-dried at room temperature. After seeding the U87 and HeLa cell lines (3 × 10^5cells/insert), the complex concentrations were selected as 6.25 or 12.5 μM and incubated at 37°C in a humidified incubator with 5% CO2 for 24 h. The cell monolayers in the transwell inserts were fixed with ice-cold methanol and stained with 0.05% crystal violet for the analysis. The invasion of the cells to the basolateral side of the inserts was investigated using a light microscope with 40× magnification.

Series [2] relates to HeLa cells. The series is described as follows: In vitro comet assay. It is filed as cell-based, human. The following applies: 25 and 50 μM, 24 h. The procedure:
Commet assay was performed with U87 and HeLa cell lines (4 × 10^4 cells/well) to detect DNA damage in the individual eukaryotic cells, where 25 or 50 μM Cu(II) or Pt(II) complexes were added to the cells and incubated for 24 h. Subsequently, the comet assay was performed as described before.[31] The DNA damage was evaluated by calculating the DNA tail percentage using the following equation: DNA tail % = 100× tailing DNA density/cell DNA density. The assay was repeated twice, and 50 individual cells were involved for each treatment.

On to `[Cl][Cu][Cl].c1ccc(-c2nc3ccc(-c4ccc5nc(-c6ccccn6)c(-c6ccccn6)nc5c4)cc3nc2-c2ccccn2)nc1` [Cu(tpbq)Cl2], for which, in series [1], the anti-invasive effect result was “did not have any anti-invasive effect”.

For the compound `[Cl][Cu][Cl].c1csc(-c2nc3ccc(-c4ccc5nc(-c6cccs6)c(-c6cccs6)nc5c4)cc3nc2-c2cccs2)c1` [Cu(ttbq)Cl2], the “genotoxicity (DNA damage, comet)” value in series [2] is “only genotoxic on the Hela cells at a high concentration (50 μM)”.

For the origin of these results see paper PMC10849753, “Antiproliferative activity of platinum(II) and copper(II) complexes containing novel biquinoxaline ligands” (Metallomics: Integrated Biometal Science, 2024).
